In this assay the target is mouse BK channel (mSlo) (Mus musculus, UniProt Q08460). Format: cell-based.

pKd: −log10 of the molar value.

Sequence of mouse BK channel (mSlo) (Q08460 whole entry): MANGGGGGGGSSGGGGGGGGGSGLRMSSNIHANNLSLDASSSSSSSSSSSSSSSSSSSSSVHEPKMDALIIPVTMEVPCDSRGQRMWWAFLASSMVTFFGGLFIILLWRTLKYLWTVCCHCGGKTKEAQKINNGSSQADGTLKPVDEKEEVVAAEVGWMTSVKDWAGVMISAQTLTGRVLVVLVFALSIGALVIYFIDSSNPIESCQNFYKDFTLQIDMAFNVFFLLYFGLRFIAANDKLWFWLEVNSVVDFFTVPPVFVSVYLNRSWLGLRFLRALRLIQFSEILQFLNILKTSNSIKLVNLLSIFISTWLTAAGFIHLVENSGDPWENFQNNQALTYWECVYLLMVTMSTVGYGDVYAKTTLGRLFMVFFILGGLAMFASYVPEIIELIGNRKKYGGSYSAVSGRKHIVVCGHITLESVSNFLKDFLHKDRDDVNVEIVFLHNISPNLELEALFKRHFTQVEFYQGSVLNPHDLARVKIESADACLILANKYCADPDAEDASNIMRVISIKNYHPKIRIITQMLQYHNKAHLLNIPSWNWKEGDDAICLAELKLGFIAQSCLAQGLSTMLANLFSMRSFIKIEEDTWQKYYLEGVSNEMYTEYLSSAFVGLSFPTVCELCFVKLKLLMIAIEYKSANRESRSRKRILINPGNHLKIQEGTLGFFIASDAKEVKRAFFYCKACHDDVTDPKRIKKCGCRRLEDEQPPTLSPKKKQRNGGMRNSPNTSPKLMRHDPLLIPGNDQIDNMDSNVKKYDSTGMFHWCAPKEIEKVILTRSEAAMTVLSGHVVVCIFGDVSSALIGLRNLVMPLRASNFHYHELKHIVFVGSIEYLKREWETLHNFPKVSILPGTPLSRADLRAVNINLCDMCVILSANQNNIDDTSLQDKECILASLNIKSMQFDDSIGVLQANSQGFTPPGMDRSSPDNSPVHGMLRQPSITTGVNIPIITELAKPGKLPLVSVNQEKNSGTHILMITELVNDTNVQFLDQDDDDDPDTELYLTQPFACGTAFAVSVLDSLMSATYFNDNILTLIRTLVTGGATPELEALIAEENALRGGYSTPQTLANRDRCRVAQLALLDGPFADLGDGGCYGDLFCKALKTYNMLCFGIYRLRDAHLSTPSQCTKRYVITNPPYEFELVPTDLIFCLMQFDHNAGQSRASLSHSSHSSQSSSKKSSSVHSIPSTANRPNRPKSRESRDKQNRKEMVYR

As a reminder, the pKd is the Kd on a negative log10 scale, so that one unit is a factor of ten. Lower therefore signals a large Kd. `CCCC[N+](CCCC)(CCCC)CCCC` [TBA, tetrabutylammonium] showed a negative logarithm of the Kd (pKd) of 3.20.

The record behind these values is article PMC2151567 (The Journal of General Physiology, 2006).
